Data from US11452752B2, “Composition for antioxidation, anti-inflammation, or osteoclast differentiation inhibition” (NATURAL ENDOTECH CO., LTD., priority 2017, dated 2022).

What was measured:
[1] = system: osteoclast differentiation of Raw 264.7 cells; assay: RANKL-induced osteoclast differentiation inhibition (osteoclast count); format: cell-based; conditions: Mus musculus, RAW264.7, 96 h; 10 mM; 50 ng/mL RANKL, 4 days; read-out: osteoclast differentiation inhibitory effect
Description: The media were removed after the incubation, followed by washing with PBS, and then the cells were fixed and stained using a leukocyte acid phosphatase kit (Sigma). After the staining, the osteoclasts were counted using a microscope, and the osteoclast count in a sample was expressed as a percentage relative to the control.

[2] = system: nitric oxide (NO) production in RAW264.7 cells; assay: Nitric oxide (NO) production inhibition, GRIESS assay, LPS-stimulated cells; format: cell-based; conditions: 12.5 μM; 500 ng/mL LPS, 24 hours
Description: After the incubation, 100 μL of the supernatant was taken and transferred into a 96-well plate, and 100 μL of GRIESS solution was added, followed by incubation for 10 minutes. Thereafter, the absorbance was measured at 540 nm using a microplate reader to determine the NO production inhibitory effect.

Compound | inhibition at 10000 µM [1] | NO production [2]
NCCCC(O)(P(=O)(O)O)P(=O)(O)O [alendronate] | 72.2% | 
Cc1ccc(-c2cc(C(F)(F)F)nn2-c2ccc(S(N)(=O)=O)cc2)cc1 [celecoxib] |  | 46.7%
